# Publication PMC5047949, “Kinetic analysis of the translocator protein positron emission tomography ligand [^18F]GE-180 in the human brain” (European Journal of Nuclear Medicine and Molecular Imaging, 2016)
# What was measured:
# [1] = pH 7.4; preclinical work; cited from earlier work
# [2] = tested on: translocator protein (TSPO); experiment: Dynamic [^18F]GE-180 brain PET with arterial input; 1TC, 2TC and Logan kinetic modelling; assay type: in vivo, human; conditions: for Distribution volume ratio: cortical grey matter pseudoreference, median (IQR); for K1 / VT / k2 / k3 / k4: median (interquartile range)
# Protocol: PET studies were performed on a Biograph 6 (six-slice CT) scanner after administration of 182 ± 3.1 MBq via intravenous bolus injection over 10 s followed by a 10-mL saline flush. A low-dose CT scan preceded the PET acquisition to allow correction for tissue attenuation. Emission data were then acquired over 90 min in list mode and reconstructed as 24 temporal frames (6 × 15, 3 × 60, 5 × 120, 5 × 300, 5 × 600 s) using filtered back-projection (matrix size 168 × 168, zoom 2.6, 5-mm gaussian filter, pixel size 1.56 × 1.56, slice thickness 3 mm) with and without attenuation correction. Standard corrections for scatter, decay and random counts were applied.
# We used the PET data analysis and kinetic modelling toolkit, MIAKAT™ (www.miakat.org), which incorporates software from SPM5 (Wellcome Trust Centre for Neuroimaging) and FSL (FMRIB, University of Oxford). The brain was initially extracted from the T1-weighted MR images. The CIC neuroanatomical atlas was nonlinearly registered to the individual’s extracted brain in order to generate a personalized set of anatomically parcellated regions. Frame-by-frame motion correction of the dynamic (without attenuation correction) PET data was performed using mutual information coregistration of the individual frames to a reference frame. An average motion-corrected PET image was generated and used for coregistration with the T1-weighted MR image. Finally, regional tissue time–activity curves (TACs) were generated for each region of interest (ROI) defined from the CIC atlas that had been transformed into each individual’s image space.
# Datasets were analysed with a one-tissue compartment (1TC) model and a two-tissue compartment (2TC) model and the Logan graphical method, using the metabolite-corrected plasma input function as previously described with a fixed 5 % blood volume correction. The primary outcome measures were the radioligand delivery rate constant (K1; mL cm^−3 min^−1), total distribution volume (VT: mL cm^−3), and standardized uptake values (SUV). The SUV ratio (SUVR) and distribution volume ratio (DVR) were estimated using the cortical grey matter as a pseudo reference region.
# To investigate the stability of VT over different scan durations, a time stability analysis was performed by analysing data for total time windows that ranged between 40 and 90 min in 10-min increments.
# [3] = Safety and tolerability after radioligand administration; assay type: in vivo, human
# Source text: With regard to correlations between age and the principal outcome measure, there were no significant correlations between age and VT in either HABs and MABs in any of the ROIs studied (Spearman’s rho = −0.3 – 0.7 p = 0.188 – 0.873 in HABs; Spearman’s rho = 0.1 – 0.8, p = 0.104 – 0.94 in MABs). There were also no significant relationships between age and outcome measures when added as a covariate in the repeated measures ANOVA. Demographic data are provided in Supplementary Table 1.
# [4] = set-up: method as in PMID 26072270; conditions: 60 min; earlier preclinical work; cited from earlier work
# [5] = Arterial whole-blood and plasma activity, and parent fraction by HPLC; assay type: in vivo, human
# Protocol: Arterial blood activity was measured every second for the first 15 min of the 90-min scan using an automated blood sampling system (ABSS Allog, Mariefred, Sweden) connected to the subject via a 1.5 m × 1.0 mm diameter polytetrafluoroethylene line (blood withdrawal rate 2.5 ml/min). In addition, blood samples (10 mL) were collected manually from the radial artery at 0, 5, 10, 15, 30, 50, 70 and 90 min to assay whole-blood and plasma activity. Plasma was obtained by centrifugation for 3 min at 1,800 g. Activity in whole blood and plasma was measured in a CAPRAC-t well counter over 10 – 60 s. The first 15 min of continuous whole-blood activity was combined with the activity from discrete samples to generate the whole-blood activity curve for use in data modelling. The continuous plasma-to-blood ratio was estimated using a constant model and a total plasma activity curve was obtained by correcting the whole-blood curve for this partition between plasma and blood.
# The parent fraction of [^18F]GE-180 was measured by high-performance liquid chromatography (Agilent 1,100 and 1,260 series) of discrete plasma samples (3.5 mL). The parent fraction was fitted to a single exponential plus a constant model. The total plasma activity was multiplied by this parent fraction and then smoothed post peak by fitting to a triexponential function to generate an arterial parent plasma input function. A delay correction of up to +30 s was applied to the input function prior to fitting the kinetic modelling. This was performed to account for delay in the 1.5-m tube (28.3 s) and delay between the radial artery and the brain.
# [6] = humans; in vitro work, not measured in this study; cited from earlier work
# [7] = 2TC-fix model, across all regions and subjects
# [8] = Logan graphical method, Cerebellum
# [9] = Logan graphical method, Frontal lobe
# [10] = Logan graphical method, Occipital lobe
# [11] = Logan graphical method, Parietal lobe
# [12] = Logan graphical method, Striatum
# [13] = Logan graphical method, Temporal lobe
# [14] = Logan graphical method, Thalamus
smiles,measurement,setting,value
CCN(CC)C(=O)[C@H]1CCCc2c1c1c(OC)cccc1n2CC[18F] [[^18F]GE-180],logD,[1],2.95
same,Distribution volume ratio,"[2]; 1TC model, Cerebellum",0.968 (0.91 – 1)
same,K1,"[2]; 1TC model, Cerebellum",0.00656 (0.0054 – 0.0076) mL/min
same,VT,"[2]; 1TC model, Cerebellum",0.178 (0.16 – 0.22) mL/cm^3
same,k2,"[2]; 1TC model, Cerebellum",0.0339 (0.034 – 0.034) /min
same,Distribution volume ratio,"[2]; 1TC model, Frontal lobe",0.939 (0.94 – 0.95)
same,K1,"[2]; 1TC model, Frontal lobe",0.00472 (0.0041 – 0.006) mL/min
same,VT,"[2]; 1TC model, Frontal lobe",0.171 (0.15 – 0.22) mL/cm^3
same,k2,"[2]; 1TC model, Frontal lobe",0.0271 (0.023 – 0.028) /min
same,Distribution volume ratio,"[2]; 1TC model, Occipital lobe",1.12 (1.1 – 1.2)
same,K1,"[2]; 1TC model, Occipital lobe",0.00621 (0.0057 – 0.0074) mL/min
same,VT,"[2]; 1TC model, Occipital lobe",0.214 (0.19 – 0.25) mL/cm^3
same,k2,"[2]; 1TC model, Occipital lobe",0.03 (0.025 – 0.032) /min
same,Distribution volume ratio,"[2]; 1TC model, Parietal lobe",0.969 (0.96 – 1)
same,K1,"[2]; 1TC model, Parietal lobe",0.00513 (0.004 – 0.0061) mL/min
same,VT,"[2]; 1TC model, Parietal lobe",0.19 (0.16 – 0.22) mL/cm^3
same,k2,"[2]; 1TC model, Parietal lobe",0.027 (0.024 – 0.028) /min
same,Distribution volume ratio,"[2]; 1TC model, Striatum",0.826 (0.78 – 0.89)
same,K1,"[2]; 1TC model, Striatum",0.00358 (0.003 – 0.0046) mL/min
same,VT,"[2]; 1TC model, Striatum",0.155 (0.14 – 0.2) mL/cm^3
same,k2,"[2]; 1TC model, Striatum",0.0241 (0.021 – 0.025) /min
same,K1,"[2]; 1TC model, Temporal lobe",0.00514 (0.0048 – 0.006) mL/min
same,VT,"[2]; 1TC model, Temporal lobe",0.182 (0.17 – 0.24) mL/cm^3
same,k2,"[2]; 1TC model, Temporal lobe",0.0266 (0.025 – 0.028) /min
same,Distribution volume ratio,"[2]; 1TC model, Thalamus",1.03 (0.96 – 1.1)
same,K1,"[2]; 1TC model, Thalamus",0.00555 (0.0046 – 0.0058) mL/min
same,VT,"[2]; 1TC model, Thalamus",0.182 (0.17 – 0.24) mL/cm^3
same,k2,"[2]; 1TC model, Thalamus",0.0261 (0.024 – 0.028) /min
same,Distribution volume ratio,"[2]; 2TC model, Cerebellum",0.916 (0.69 – 0.98)
same,K1,"[2]; 2TC model, Cerebellum",0.0224 (0.016 – 1.3) mL/min
same,VT,"[2]; 2TC model, Cerebellum",0.281 (0.25 – 0.33) mL/cm^3
same,k2,"[2]; 2TC model, Cerebellum",0.319 (0.23 – 78) /min
same,k3,"[2]; 2TC model, Cerebellum",0.0331 (0.029 – 0.091) /min
same,k4,"[2]; 2TC model, Cerebellum",0.0113 (0.0084 – 0.018) /min
same,Distribution volume ratio,"[2]; 2TC model, Frontal lobe",0.984 (0.96 – 1.2)
same,K1,"[2]; 2TC model, Frontal lobe",0.0102 (0.0089 – 0.013) mL/min
same,VT,"[2]; 2TC model, Frontal lobe",0.346 (0.26 – 0.5) mL/cm^3
same,k2,"[2]; 2TC model, Frontal lobe",0.195 (0.15 – 1.6) /min
same,k3,"[2]; 2TC model, Frontal lobe",0.0301 (0.024 – 0.15) /min
same,k4,"[2]; 2TC model, Frontal lobe",0.00653 (0.004 – 0.017) /min
same,Distribution volume ratio,"[2]; 2TC model, Occipital lobe",1.07 (0.97 – 1.1)
same,K1,"[2]; 2TC model, Occipital lobe",0.0238 (0.019 – 0.031) mL/min
same,VT,"[2]; 2TC model, Occipital lobe",0.35 (0.3 – 0.52) mL/cm^3
same,k2,"[2]; 2TC model, Occipital lobe",0.385 (0.2 – 0.62) /min
same,k3,"[2]; 2TC model, Occipital lobe",0.0395 (0.036 – 0.054) /min
same,k4,"[2]; 2TC model, Occipital lobe",0.0101 (0.0062 – 0.014) /min
same,Distribution volume ratio,"[2]; 2TC model, Parietal lobe",1.01 (0.98 – 1.1)
same,K1,"[2]; 2TC model, Parietal lobe",0.0116 (0.011 – 0.014) mL/min
same,VT,"[2]; 2TC model, Parietal lobe",0.33 (0.31 – 0.42) mL/cm^3
same,k2,"[2]; 2TC model, Parietal lobe",0.192 (0.15 – 0.25) /min
same,k3,"[2]; 2TC model, Parietal lobe",0.0334 (0.025 – 0.039) /min
same,k4,"[2]; 2TC model, Parietal lobe",0.00873 (0.0045 – 0.014) /min
same,Distribution volume ratio,"[2]; 2TC model, Striatum",0.451 (0.41 – 0.71)
same,K1,"[2]; 2TC model, Striatum",0.00413 (0.0033 – 0.0088) mL/min
same,VT,"[2]; 2TC model, Striatum",0.155 (0.14 – 0.22) mL/cm^3
same,k2,"[2]; 2TC model, Striatum",1.14 (0.66 – 1.7) /min
same,k3,"[2]; 2TC model, Striatum",4.89 (0.62 – 9.1) /min
same,k4,"[2]; 2TC model, Striatum",0.14 (0.027 – 0.21) /min
same,Distribution volume ratio,"[2]; 2TC model, Temporal lobe",0.958 (0.93 – 1)
same,K1,"[2]; 2TC model, Temporal lobe",0.0143 (0.012 – 0.032) mL/min
same,VT,"[2]; 2TC model, Temporal lobe",0.306 (0.27 – 0.42) mL/cm^3
same,k2,"[2]; 2TC model, Temporal lobe",0.217 (0.16 – 1.3) /min
same,k3,"[2]; 2TC model, Temporal lobe",0.0348 (0.03 – 0.15) /min
same,k4,"[2]; 2TC model, Temporal lobe",0.00927 (0.0063 – 0.016) /min
same,Distribution volume ratio,"[2]; 2TC model, Thalamus",0.922 (0.81 – 1.1)
same,K1,"[2]; 2TC model, Thalamus",0.0118 (0.011 – 0.014) mL/min
same,VT,"[2]; 2TC model, Thalamus",0.376 (0.28 – 0.41) mL/cm^3
same,k2,"[2]; 2TC model, Thalamus",0.16 (0.14 – 0.2) /min
same,k3,"[2]; 2TC model, Thalamus",0.0315 (0.026 – 0.042) /min
same,k4,"[2]; 2TC model, Thalamus",0.00881 (0.0062 – 0.012) /min
same,average regional delivery rate constant (K1),"[2]; 2TC model, healthy subjects",0.01 mL cm^−3 min^−1
same,"K1, average",[2]; [7],0.013 mL cm^−3 min^−1
same,"VT, average",[2]; [7],0.311 mL cm^−3
same,"k2, average",[2]; [7],0.229 min⁻¹
same,"k3, average",[2]; [7],0.035 min⁻¹
same,"k4, average",[2]; [7],0.010 min⁻¹
same,Distribution volume ratio,[2]; [8],0.99 (0.91 – 1)
same,VT,[2]; [8],0.29 (0.24 – 0.3) mL/cm^3
same,Distribution volume ratio,[2]; [9],0.931 (0.92 – 0.97)
same,VT,[2]; [9],0.265 (0.23 – 0.33) mL/cm^3
same,Distribution volume ratio,[2]; [10],1.14 (1.1 – 1.2)
same,VT,[2]; [10],0.34 (0.3 – 0.39) mL/cm^3
same,Distribution volume ratio,[2]; [11],0.996 (0.93 – 1)
same,VT,[2]; [11],0.284 (0.23 – 0.35) mL/cm^3
same,Distribution volume ratio,[2]; [12],0.844 (0.7 – 0.92)
same,VT,[2]; [12],0.25 (0.21 – 0.29) mL/cm^3
same,Distribution volume ratio,[2]; [13],1.01 (0.95 – 1.1)
same,VT,[2]; [13],0.312 (0.24 – 0.36) mL/cm^3
same,Distribution volume ratio,[2]; [14],0.991 (0.98 – 1)
same,VT,[2]; [14],0.3 (0.26 – 0.31) mL/cm^3
same,time of peak concentration in the brain,[2]; all subjects,around 1 min
same,extraction across the blood–brain barrier (first-pass extraction),"[2]; healthy subjects, from K1 of the 2TC model",approximately 1%
same,estimated median VT,"[2]; striatum (lowest ROI), 2TC model",0.16 mL cm^−3
same,estimated median VT,"[2]; thalamus (highest ROI), 2TC model",0.38 mL cm^−3
same,share of activity in a typical ROI that came from blood,[2]; tissue TAC minus whole-blood radioactivity curve,approximately 20%
same,safety of tracer administration,[3]; healthy subjects,safe
same,pharmacological effects after injection,"[3]; patient reports, blood pressure, pulse, respiration rate, oxygen saturation",no pharmacological effects
same,parent in the brain,[4],94%
same,intact parent tracer remaining,"[5]; 90 min, plasma",70%
same,time of peak concentration in plasma,[5]; arterial plasma after i.v. bolus,about 45 s
same,plasma-to-blood ratio,[5]; constant across subjects,about 1.69
same,polar radioactive metabolites (three) in plasma,[5]; over the 90 min scanning window,< 10 % of parent compound
same,plasma free fraction,[6],approximately 3%
